These results are taken from patent US12391657B2, “Small molecules that bind and/or modulate differentforms of tau oligomers” (The Board of Regents of the University of Texas System, priority 2019, dated 2025).

“Also recorded” adds a separate entry of the source.

For series [1], the target named is T1, recombinant tau oligomers (TauO) (Homo sapiens, UniProt P10636).
T1 construct: made in house
Kind of series: Western blot of recombinant tau oligomers with and without compounds. To be noted: curcumin 5× and 10×, oligomerization conditions. It counts as biochemical. The method, then: Pre-cast NuPAGE 4-12% Bis-Tris Gels for SDS-PAGE (Introvigen) were loaded with 3 μg of recombinant tau for each sample per well along with molecular weight marker. After being separated by electrophoresis, proteins were transferred to nitrocellulose membranes. Membranes were then blocked with 10% nonfat milk in Tris-buffered saline with very low tween 0.01% (TBS-T) overnight at 4° C. The next day membranes were probed with T22 (1:250) for tau oligomers and tau5 (1:10000) for total tau, diluted in 5% nonfat milk for 1 hour at RT. Membranes were then incubated with horseradish peroxidase-conjugated IgG anti-rabbit (1:10000) and anti-mouse (1:10000) secondary antibodies to detect, T22 and Tau5, respectively. ECL plus (GE Healthcare) was used for signal detection. Densitometric analysis of each band was quantified using Image J and analyzed by one-way ANOVA.
Recombinant tau protein (tau-441 (2N4R) MW 45.9 kDa) was expressed and purified as described (Margittai and Langen 2004, Margittai and Langen 2006). The tau pellet was treated with 8M urea followed by overnight dialysis against 1× phosphate-buffered saline (PBS) pH 7.4. Tau concentration was measured using bicinchoninic acid protein assay (Micro BCA kit, Pierce) and normalized to 1 mg/ml by adding 1× PBS. Aliquots of tau monomer in PBS were stored at −20° C. […]

The target in series [2] is T1, recombinant tau oligomers (TauO). Kind of series: Dot blot of recombinant tau oligomers with and without compounds. It counts as biochemical. To be noted: curcumin. The protocol: The dot blot assay was performed as previously described (Lasagna-Reeves, Castillo-Carranza et al. 2010), to detect tau oligomers in the absence and presence of small molecules. Briefly, 1.5 μl of each end-product reaction was applied onto nitrocellulose membranes and then blocked with 10% nonfat milk in TBS-T overnight at 4° C. Next day, membranes were probed with T22 (1:250) for immunoreactivity with tau oligomers and Tau5 (1:10000) for total tau, diluted in 5% nonfat milk for 1 hour at RT. Membranes were then washed three time with TBS-T and incubated with horseradish peroxidase-conjugated IgG anti-rabbit (1:10000) and anti-mouse (1:10000) secondary antibodies to detect, T22 and Tau5, respectively. Blots were then washed three times in TBS-T and exposed to ECL plus (GE Healthcare) was used for signal detection. Densitometric analysis of each band was quantified using Image J.
Compounds were dissolved in ETOH 75%/DMSO (5:1) at a final concentration of 5 mM and diluted in 1× PBS or ddH2O for incubation or toxicity assay (final concentration 5 μM). […]
Densitometric analysis of each band was quantified using Image J and analyzed by two-way ANOVA followed by Dunnett's multiple comparisons test, performed using GraphPad Prism 6.01.

The conditions of series [3]: cited from earlier work.
The conditions of series [4]: in vivo; cited from earlier work.

T1 sequence (P10636 1-441 isoform P10636-8): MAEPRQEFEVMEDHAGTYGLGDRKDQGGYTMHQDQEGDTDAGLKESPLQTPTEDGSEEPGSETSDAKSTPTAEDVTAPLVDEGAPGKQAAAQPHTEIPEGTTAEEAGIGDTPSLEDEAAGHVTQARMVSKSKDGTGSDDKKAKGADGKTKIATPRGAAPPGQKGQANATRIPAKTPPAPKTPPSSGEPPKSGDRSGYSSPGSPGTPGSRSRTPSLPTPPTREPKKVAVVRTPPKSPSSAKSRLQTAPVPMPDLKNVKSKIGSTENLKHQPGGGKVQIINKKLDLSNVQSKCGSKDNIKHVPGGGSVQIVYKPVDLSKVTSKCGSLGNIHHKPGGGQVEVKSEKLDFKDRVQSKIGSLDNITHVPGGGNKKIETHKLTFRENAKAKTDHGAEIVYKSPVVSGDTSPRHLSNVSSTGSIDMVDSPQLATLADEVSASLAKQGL

As for `COc1cc(/C=C/C(=O)CC(=O)/C=C/c2ccc(O)c(OC)c2)ccc1O` [curcumin], the results for the “aggregation state of preformed tau oligomers, Western blot (T22, Tau 5, Tau 13)” value in series [1] and in series [1] (listed as Curcumin) were “promoting the formation of larger tau aggregates” and “alters the aggregation states of preformed tau oligomers”, respectively. In addition, the “oligomeric tau level, dot blot” value in series [2] is reported as “decreased levels of oligomeric tau; also recorded: significant decrease in oligomers”. In addition, the “solubility in aqueous media” value in series [3] was “poor solubility in aqueous buffers”. For the same molecule, the bioavailability entry in series [4] is given as “low brain bioavailability following oral administration”.
